Results: publication PMC10850145, “Hormonal steroids induce multidrug resistance and stress response genes in Neisseria gonorrhoeae by binding to MtrR” (Nature Communications, 2024)
Values joined by “and” are separate entries in the source; they are usually repeats but may differ in a detail not shown here. Equal values may be shown once. Read-outs that look alike come from different tables or passages of the source.

Test system: mtrC-lacZ expression
Format: cell-based, Neisseria gonorrhoeae
Conditions: for Miller units: single well; for mtrC-lacZ β-galactosidase activity, Mean: left block of sheet (mtrCDE)
[1] = second block of sheet (c39-c76), ΔmtrR + mtrR R176E in trans, 6.25 µM
[2] = second block of sheet (c39-c76), ΔmtrR + mtrR R176E in trans, 12.5 µM
[3] = second block of sheet (c39-c76), ΔmtrR + mtrR R176E in trans, 25 µM
[4] = second block of sheet (c39-c76), ΔmtrR + mtrR R176E in trans, 50 µM

Q: What does the source list for `C[C@]12CC[C@@H]3c4ccc(O)cc4CC[C@H]3[C@@H]1CC[C@@H]2O` [β-Estradiol, β-estradiol]?
A: β-galactosidase activity, individual replicate (mtrR WT in cis, 50 µM hormone, single replicate values, second (right) block): 113 Miller units and 109 Miller units; β-galactosidase activity, Miller units (single replicate) (mtrR WT in cis, 50 µM, first data set (c15-c36)): 196 Miller units and 185 Miller units and 161 Miller units; β-galactosidase activity, Miller units (single replicate) (mtrR WT in cis, 50 µM, second data set (c53-c74)): 92 Miller units and 82 Miller units; β-galactosidase activity, Mean [1]: 80 Miller units; β-galactosidase activity, single replicate [1]: 96 Miller units and 78 Miller units and 89 Miller units and 60 Miller units; β-galactosidase activity, Mean [2]: 81 Miller units; β-galactosidase activity, single replicate [2]: 106 Miller units and 86 Miller units and 70 Miller units and 62 Miller units; β-galactosidase activity, Mean [3]: 94 Miller units; β-galactosidase activity, single replicate [3]: 126 Miller units and 96 Miller units and 86 Miller units and 68 Miller units; β-galactosidase activity, Mean [4]: 89 Miller units; β-galactosidase activity, single replicate [4]: 107 Miller units and 93 Miller units and 84 Miller units and 73 Miller units; Miller units (plate rows 1-4, plate columns 1-6 (first strain), 6.25 µM hormone): 104 Miller units and 79 Miller units and 90 Miller units and 61 Miller units; Miller units (plate rows 1-4, plate columns 1-6 (first strain), 12.5 µM hormone): 145 Miller units and 115 Miller units and 112 Miller units and 81 Miller units; Miller units (plate rows 1-4, plate columns 1-6 (first strain), 25 µM hormone): 166 Miller units and 152 Miller units and 162 Miller units and 114 Miller units; Miller units (plate rows 1-4, plate columns 1-6 (first strain), 50 µM hormone): 161 Miller units and 192 Miller units and 168 Miller units and 126 Miller units; Miller units (plate rows 1-4, plate columns 7-12 (second strain), 12.5 µM hormone): 165 Miller units and 161 Miller units and 99 Miller units; Miller units (plate rows 1-4, plate columns 7-12 (second strain), 25 µM hormone): 232 Miller units and 177 Miller units and 156 Miller units and 133 Miller units; Miller units (plate rows 1-4, plate columns 7-12 (second strain), 50 µM hormone): 195 Miller units and 178 Miller units and 151 Miller units and 114 Miller units; β-galactosidase activity, mtrC-lacZ, Mean (strain WT (FA19/pLES94-mtrC), hormone 6.25 µM): 131 Miller units; β-galactosidase activity, mtrC-lacZ, Mean (strain WT (FA19/pLES94-mtrC), hormone 12.5 µM): 148 Miller units; β-galactosidase activity, mtrC-lacZ, Mean (strain WT (FA19/pLES94-mtrC), hormone 25 µM): 177 Miller units; β-galactosidase activity, mtrC-lacZ, Mean (strain WT (FA19/pLES94-mtrC), hormone 50 µM): 224 Miller units; mtrC-lacZ β-galactosidase activity, Mean (strain WT, 6.25 µM hormone): 137 Miller units; β-galactosidase activity, Mean (strain WT, 6.25 µM hormone, second (right) untitled block of sheet Figure S10 (mtrC)): 44 Miller units; mtrC-lacZ β-galactosidase activity, Mean (strain WT, 12.5 µM hormone): 155 Miller units; β-galactosidase activity, Mean (strain WT, 12.5 µM hormone, second (right) untitled block of sheet Figure S10 (mtrC)): 54 Miller units; mtrC-lacZ β-galactosidase activity, Mean (strain WT, 25 µM hormone): 162 Miller units; β-galactosidase activity, Mean (strain WT, 25 µM hormone, second (right) untitled block of sheet Figure S10 (mtrC)): 60 Miller units; mtrC-lacZ β-galactosidase activity, Mean (strain WT, 50 µM hormone): 182 Miller units; β-galactosidase activity, Mean (strain WT, 50 µM hormone, second (right) untitled block of sheet Figure S10 (mtrC)): 99 Miller units; activation of mtrC (strain producing MtrR R176E): clearly weaker activation; β-galactosidase activity, mtrC-lacZ, Mean (strain ΔmtrR (FA19 ∆mtrR/pLES94-mtrC), hormone 6.25 µM): 210 Miller units; β-galactosidase activity, mtrC-lacZ, Mean (strain ΔmtrR (FA19 ∆mtrR/pLES94-mtrC), hormone 12.5 µM): 218 Miller units; β-galactosidase activity, mtrC-lacZ, Mean (strain ΔmtrR (FA19 ∆mtrR/pLES94-mtrC), hormone 25 µM): 243 Miller units; β-galactosidase activity, mtrC-lacZ, Mean (strain ΔmtrR (FA19 ∆mtrR/pLES94-mtrC), hormone 50 µM): 255 Miller units; β-galactosidase activity, mtrC-lacZ, Mean (strain ΔmtrR + mtrR D171A (pGCC3-mtrR D171A), hormone 6.25 µM): 149 Miller units; β-galactosidase activity, mtrC-lacZ, Mean (strain ΔmtrR + mtrR D171A (pGCC3-mtrR D171A), hormone 12.5 µM): 157 Miller units; β-galactosidase activity, mtrC-lacZ, Mean (strain ΔmtrR + mtrR D171A (pGCC3-mtrR D171A), hormone 25 µM): 167 Miller units; β-galactosidase activity, mtrC-lacZ, Mean (strain ΔmtrR + mtrR D171A (pGCC3-mtrR D171A), hormone 50 µM): 163 Miller units; mtrC-lacZ β-galactosidase activity, Mean (strain ΔmtrR + mtrR R176E, 6.25 µM hormone): 194 Miller units; β-galactosidase activity, Mean (strain ΔmtrR + mtrR R176E, 6.25 µM hormone, second (right) untitled block of sheet Figure S10 (mtrC)): 80 Miller units; mtrC-lacZ β-galactosidase activity, Mean (strain ΔmtrR + mtrR R176E, 12.5 µM hormone): 205 Miller units; β-galactosidase activity, Mean (strain ΔmtrR + mtrR R176E, 12.5 µM hormone, second (right) untitled block of sheet Figure S10 (mtrC)): 81 Miller units; mtrC-lacZ β-galactosidase activity, Mean (strain ΔmtrR + mtrR R176E, 25 µM hormone): 197 Miller units; β-galactosidase activity, Mean (strain ΔmtrR + mtrR R176E, 25 µM hormone, second (right) untitled block of sheet Figure S10 (mtrC)): 94 Miller units; mtrC-lacZ β-galactosidase activity, Mean (strain ΔmtrR + mtrR R176E, 50 µM hormone): 269 Miller units; β-galactosidase activity, Mean (strain ΔmtrR + mtrR R176E, 50 µM hormone, second (right) untitled block of sheet Figure S10 (mtrC)): 89 Miller units; β-galactosidase activity, mtrC-lacZ, Mean (strain ΔmtrR + mtrR WT (pGCC3-mtrR), hormone 6.25 µM): 116 Miller units; β-galactosidase activity, mtrC-lacZ, Mean (strain ΔmtrR + mtrR WT (pGCC3-mtrR), hormone 12.5 µM): 113 Miller units; β-galactosidase activity, mtrC-lacZ, Mean (strain ΔmtrR + mtrR WT (pGCC3-mtrR), hormone 25 µM): 138 Miller units; β-galactosidase activity, mtrC-lacZ, Mean (strain ΔmtrR + mtrR WT (pGCC3-mtrR), hormone 50 µM): 158 Miller units; mtrC-lacZ β-galactosidase activity, Mean (strain ΔmtrR + mtrR WT, 6.25 µM hormone): 106 Miller units; β-galactosidase activity, Mean (strain ΔmtrR + mtrR WT, 6.25 µM hormone, second (right) untitled block of sheet Figure S10 (mtrC)): 17 Miller units; mtrC-lacZ β-galactosidase activity, Mean (strain ΔmtrR + mtrR WT, 12.5 µM hormone): 117 Miller units; β-galactosidase activity, Mean (strain ΔmtrR + mtrR WT, 12.5 µM hormone, second (right) untitled block of sheet Figure S10 (mtrC)): 27 Miller units; mtrC-lacZ β-galactosidase activity, Mean (strain ΔmtrR + mtrR WT, 25 µM hormone): 136 Miller units; β-galactosidase activity, Mean (strain ΔmtrR + mtrR WT, 25 µM hormone, second (right) untitled block of sheet Figure S10 (mtrC)): 36 Miller units; mtrC-lacZ β-galactosidase activity, Mean (strain ΔmtrR + mtrR WT, 50 µM hormone): 154 Miller units; β-galactosidase activity, Mean (strain ΔmtrR + mtrR WT, 50 µM hormone, second (right) untitled block of sheet Figure S10 (mtrC)): 45 Miller units; mtrC-lacZ β-galactosidase activity, Mean (strain ΔmtrR, 6.25 µM hormone): 273 Miller units; β-galactosidase activity, Mean (strain ΔmtrR, 6.25 µM hormone, second (right) untitled block of sheet Figure S10 (mtrC)): 94 Miller units; mtrC-lacZ β-galactosidase activity, Mean (strain ΔmtrR, 12.5 µM hormone): 263 Miller units; β-galactosidase activity, Mean (strain ΔmtrR, 12.5 µM hormone, second (right) untitled block of sheet Figure S10 (mtrC)): 89 Miller units; mtrC-lacZ β-galactosidase activity, Mean (strain ΔmtrR, 25 µM hormone): 239 Miller units; β-galactosidase activity, Mean (strain ΔmtrR, 25 µM hormone, second (right) untitled block of sheet Figure S10 (mtrC)): 98 Miller units; mtrC-lacZ β-galactosidase activity, Mean (strain ΔmtrR, 50 µM hormone): 257 Miller units; β-galactosidase activity, Mean (strain ΔmtrR, 50 µM hormone, second (right) untitled block of sheet Figure S10 (mtrC)): 101 Miller units; β-galactosidase activity, Miller units (single replicate) (ΔmtrR + mtrR WT in trans, 6.25 µM, first data set (c15-c36)): 87 Miller units and 127 Miller units; β-galactosidase activity, Miller units (single replicate) (ΔmtrR + mtrR WT in trans, 6.25 µM, second data set (c53-c74)): 22 Miller units and 9 Miller units and 12 Miller units and 27 Miller units; β-galactosidase activity, Miller units (single replicate) (ΔmtrR + mtrR WT in trans, 12.5 µM, first data set (c15-c36)): 84 Miller units and 130 Miller units; β-galactosidase activity, Miller units (single replicate) (ΔmtrR + mtrR WT in trans, 12.5 µM, second data set (c53-c74)): 33 Miller units and 23 Miller units and 27 Miller units; β-galactosidase activity, Miller units (single replicate) (ΔmtrR + mtrR WT in trans, 25 µM, first data set (c15-c36)): 124 Miller units and 127 Miller units; β-galactosidase activity, Miller units (single replicate) (ΔmtrR + mtrR WT in trans, 25 µM, second data set (c53-c74)): 45 Miller units and 34 Miller units and 39 Miller units and 27 Miller units; β-galactosidase activity, Miller units (single replicate) (ΔmtrR + mtrR WT in trans, 50 µM, first data set (c15-c36)): 156 Miller units and 168 Miller units; β-galactosidase activity, Miller units (single replicate) (ΔmtrR + mtrR WT in trans, 50 µM, second data set (c53-c74)): 51 Miller units and 40 Miller units and 39 Miller units and 48 Miller units; β-galactosidase activity, Miller units (single replicate) (ΔmtrR, 6.25 µM, first data set (c15-c36)): 214 Miller units and 261 Miller units and 306 Miller units and 310 Miller units; β-galactosidase activity, Miller units (single replicate) (ΔmtrR, 6.25 µM, second data set (c53-c74)): 115 Miller units and 96 Miller units and 95 Miller units and 69 Miller units; β-galactosidase activity, Miller units (single replicate) (ΔmtrR, 12.5 µM, first data set (c15-c36)): 280 Miller units and 263 Miller units and 247 Miller units and 264 Miller units; β-galactosidase activity, Miller units (single replicate) (ΔmtrR, 12.5 µM, second data set (c53-c74)): 97 Miller units and 87 Miller units and 92 Miller units and 78 Miller units; β-galactosidase activity, Miller units (single replicate) (ΔmtrR, 25 µM, first data set (c15-c36)): 208 Miller units and 262 Miller units and 216 Miller units and 271 Miller units; β-galactosidase activity, Miller units (single replicate) (ΔmtrR, 25 µM, second data set (c53-c74)): 139 Miller units and 80 Miller units and 83 Miller units and 89 Miller units; β-galactosidase activity, Miller units (single replicate) (ΔmtrR, 50 µM, first data set (c15-c36)): 240 Miller units and 239 Miller units and 224 Miller units and 327 Miller units; β-galactosidase activity, Miller units (single replicate) (ΔmtrR, 50 µM, second data set (c53-c74)): 128 Miller units and 93 Miller units and 88 Miller units and 96 Miller units
